For the first data set, the system named is Mycosphaerella graminicola; anamorph: Septoria tritici; Bayer code SEPTTR. In words: Fungicidal activity: leaf blotch of wheat, one-day protectant (1DP) and three-day curative (3DC) tests on wheat plants. It is filed as in vivo, Septoria tritici on wheat plants (variety Yuma). The following applies: Zymoseptoria tritici, 24 h; 25 ppm; one-day protectant; rating of % disease control vs untreated inoculated plants; read-out: SEPTTR 25 ppm 1DP. Here is the method: Evaluation of Fungicidal Activity: Leaf Blotch of Wheat (Mycosphaerella graminicola; anamorph: Septoria tritici; Bayer code […]) Wheat plants (variety Yuma) were grown from seed in a greenhouse in 50% mineral soil/50% soil-less Metro mix until the first leaf was fully emerged, with 7-10 seedlings per pot. These plants were inoculated with an aqueous spore suspension of Septoria tritici either prior to or after fungicide treatments. After inoculation the plants were kept in 100% relative humidity (one day in a dark dew chamber followed by two to three days in a lighted dew chamber) to permit spores to germinate and infect the leaf. The plants were then transferred to a greenhouse for disease to develop. The following table presents the activity of typical compounds of the present disclosure when evaluated in these experiments. The effectiveness of the test compounds in controlling disease was determined by assessing the severity of disease on treated plants, then converting the severity to percent control based on the level of disease on untreated, inoculated plants. In each case of Table III the rating scale is as follows: […]
Turning to `COc1ccc(C=NOc2ncc(F)c(NCc3ccccc3)n2)cc1` [Compound 23], the pest or weed control at 25 ppm fell in the range of 0 to 25%.

Turning to `Nc1nc(ON=Cc2ccc(Cl)cc2)ncc1F` [Compound 8], the pest or weed control at 25 ppm lay in the range of 76 to 100%.

Regarding `COc1ccccc1C=NOc1ncc(F)c(N)n1` [Compound 9], the pest or weed control at 25 ppm fell in the range of 76 to 100%.

On to `COc1ccc(CN(C)c2nc(ON=Cc3ccccc3)ncc2F)cc1` [Compound 46], for which the pest or weed control at 25 ppm was 0 to 25%.

In the case of `COc1ccc(CN(C)c2nc(ON=Cc3ccc(Cl)cc3)ncc2F)cc1` [Compound 47], the pest or weed control at 25 ppm lay in the range of 26 to 50%.

With `Cc1ccc(C=NOc2ncc(F)c(N)n2)cc1` [Compound 11], the pest or weed control at 25 ppm was 76 to 100%.

For the compound `CC(C)C=NOc1ncc(F)c(N)n1` [Compound 7], the pest or weed control at 25 ppm was in the range of 76 to 100%.

For the compound `COc1ccc(C=NOc2ncc(F)c(N(C)Cc3ccc(OC)cc3)n2)cc1` [Compound 48], the pest or weed control at 25 ppm fell in the range of 0 to 25%.

Regarding `CC(C)C=NOc1ncc(F)c(N(C)Cc2ccc(Cl)cc2)n1` [Compound 45], the pest or weed control at 25 ppm is 0 to 25%.

As to `COc1ccc(C=NOc2ncc(F)c(NCc3ccc(Cl)cc3)n2)cc1` [Compound 28], the pest or weed control at 25 ppm lay within 0 to 25%.

`Fc1cnc(ON=Cc2ccc(Cl)cc2)nc1NCc1ccccc1` [Compound 22]: the pest or weed control at 25 ppm fell in the range of 0 to 25%.

With `CC(C)C=NOc1ncc(F)c(N(C)Cc2ccccc2)n1` [Compound 40], the pest or weed control at 25 ppm was 0 to 25%.

On to `CN(C)c1nc(ON=Cc2ccccc2)ncc1F` [Compound 51], for which the pest or weed control at 25 ppm was in the range of 0 to 25%.

Take `CN(C)c1nc(ON=Cc2ccc(Cl)cc2)ncc1F` [Compound 52]: the pest or weed control at 25 ppm is 0 to 25%.

Consider `COc1ccc(C=NOc2ncc(F)c(N(C)Cc3ccccc3)n2)cc1` [Compound 38], for which the pest or weed control at 25 ppm lay within 0 to 25%.

Staying with this data set, now noted: Zymoseptoria tritici, 24 h; 100 ppm; one-day protectant; rating of % disease control vs untreated inoculated plants; read-out: SEPTTR 100 ppm 1DP.
For `COc1ccc(C=NOc2ncc(F)c(NCc3ccccc3)n2)cc1` [Compound 23], the pest or weed control at 100 ppm was in the range of 76 to 100%.

In the case of `Nc1nc(ON=Cc2ccc(Cl)cc2)ncc1F` [Compound 8], the pest or weed control at 100 ppm is 76 to 100%.

`COc1ccccc1C=NOc1ncc(F)c(N)n1` [Compound 9]: the pest or weed control at 100 ppm lay in the range of 76 to 100%.

As for `COc1ccc(CN(C)c2nc(ON=Cc3ccccc3)ncc2F)cc1` [Compound 46], the pest or weed control at 100 ppm was 0 to 25%.

Regarding `COc1ccc(CN(C)c2nc(ON=Cc3ccc(Cl)cc3)ncc2F)cc1` [Compound 47], the pest or weed control at 100 ppm lay within 26 to 50%.

`Cc1ccc(C=NOc2ncc(F)c(N)n2)cc1` [Compound 11]: the pest or weed control at 100 ppm lay within 76 to 100%.

With `CC(C)C=NOc1ncc(F)c(N)n1` [Compound 7], the pest or weed control at 100 ppm fell in the range of 76 to 100%.

On to `COc1ccc(C=NOc2ncc(F)c(N(C)Cc3ccc(OC)cc3)n2)cc1` [Compound 48], for which the pest or weed control at 100 ppm was in the range of 0 to 25%.

As to `CC(C)C=NOc1ncc(F)c(N(C)Cc2ccc(Cl)cc2)n1` [Compound 45], the pest or weed control at 100 ppm was 0 to 25%.

Consider `COc1ccc(C=NOc2ncc(F)c(NCc3ccc(Cl)cc3)n2)cc1` [Compound 28], for which the pest or weed control at 100 ppm lay in the range of 26 to 50%.

On to `Fc1cnc(ON=Cc2ccc(Cl)cc2)nc1NCc1ccccc1` [Compound 22], for which the pest or weed control at 100 ppm lay within 76 to 100%.

Consider `CC(C)C=NOc1ncc(F)c(N(C)Cc2ccccc2)n1` [Compound 40], for which the pest or weed control at 100 ppm was in the range of 0 to 25%.

In the case of `CN(C)c1nc(ON=Cc2ccccc2)ncc1F` [Compound 51], the pest or weed control at 100 ppm lay in the range of 0 to 25%.

Regarding `CN(C)c1nc(ON=Cc2ccc(Cl)cc2)ncc1F` [Compound 52], the pest or weed control at 100 ppm lay in the range of 0 to 25%.

With `COc1ccc(C=NOc2ncc(F)c(N(C)Cc3ccccc3)n2)cc1` [Compound 38], the pest or weed control at 100 ppm was 0 to 25%.

The data set is the same for the next values; noted with them: Zymoseptoria tritici, 72 h; 25 ppm; three-day curative; rating of % disease control vs untreated inoculated plants; read-out: SEPTTR 25 ppm 3DC.
For the compound `COc1ccc(C=NOc2ncc(F)c(NCc3ccccc3)n2)cc1` [Compound 23], the pest or weed control at 25 ppm lay within 26 to 50%.

As for `Nc1nc(ON=Cc2ccc(Cl)cc2)ncc1F` [Compound 8], the pest or weed control at 25 ppm lay within 76 to 100%.

Regarding `COc1ccccc1C=NOc1ncc(F)c(N)n1` [Compound 9], the pest or weed control at 25 ppm lay in the range of 76 to 100%.

Take `COc1ccc(CN(C)c2nc(ON=Cc3ccccc3)ncc2F)cc1` [Compound 46]: the pest or weed control at 25 ppm lay within 26 to 50%.

For the compound `COc1ccc(CN(C)c2nc(ON=Cc3ccc(Cl)cc3)ncc2F)cc1` [Compound 47], the pest or weed control at 25 ppm was 26 to 50%.

For `Cc1ccc(C=NOc2ncc(F)c(N)n2)cc1` [Compound 11], the pest or weed control at 25 ppm fell in the range of 76 to 100%.

Regarding `CC(C)C=NOc1ncc(F)c(N)n1` [Compound 7], the pest or weed control at 25 ppm is 76 to 100%.

Regarding `COc1ccc(C=NOc2ncc(F)c(N(C)Cc3ccc(OC)cc3)n2)cc1` [Compound 48], the pest or weed control at 25 ppm lay within 26 to 50%.

For `CC(C)C=NOc1ncc(F)c(N(C)Cc2ccc(Cl)cc2)n1` [Compound 45], the pest or weed control at 25 ppm lay within 26 to 50%.

Consider `COc1ccc(C=NOc2ncc(F)c(NCc3ccc(Cl)cc3)n2)cc1` [Compound 28], for which the pest or weed control at 25 ppm lay within 0 to 25%.

As to `Fc1cnc(ON=Cc2ccc(Cl)cc2)nc1NCc1ccccc1` [Compound 22], the pest or weed control at 25 ppm lay in the range of 0 to 25%.

In the case of `CC(C)C=NOc1ncc(F)c(N(C)Cc2ccccc2)n1` [Compound 40], the pest or weed control at 25 ppm was in the range of 0 to 25%.

`CN(C)c1nc(ON=Cc2ccccc2)ncc1F` [Compound 51]: the pest or weed control at 25 ppm is 0 to 25%.

In the case of `CN(C)c1nc(ON=Cc2ccc(Cl)cc2)ncc1F` [Compound 52], the pest or weed control at 25 ppm fell in the range of 0 to 25%.

Regarding `COc1ccc(C=NOc2ncc(F)c(N(C)Cc3ccccc3)n2)cc1` [Compound 38], the pest or weed control at 25 ppm lay in the range of 26 to 50%.

Staying with this data set, now noted: Zymoseptoria tritici, 72 h; 100 ppm; three-day curative; rating of % disease control vs untreated inoculated plants; read-out: SEPTTR 100 ppm 3DC.
Take `COc1ccc(C=NOc2ncc(F)c(NCc3ccccc3)n2)cc1` [Compound 23]: the pest or weed control at 100 ppm is 26 to 50%.

As for `Nc1nc(ON=Cc2ccc(Cl)cc2)ncc1F` [Compound 8], the pest or weed control at 100 ppm is 76 to 100%.

For the compound `COc1ccccc1C=NOc1ncc(F)c(N)n1` [Compound 9], the pest or weed control at 100 ppm lay within 76 to 100%.

For `COc1ccc(CN(C)c2nc(ON=Cc3ccccc3)ncc2F)cc1` [Compound 46], the pest or weed control at 100 ppm is 76 to 100%.

With `COc1ccc(CN(C)c2nc(ON=Cc3ccc(Cl)cc3)ncc2F)cc1` [Compound 47], the pest or weed control at 100 ppm lay in the range of 51 to 75%.

With `Cc1ccc(C=NOc2ncc(F)c(N)n2)cc1` [Compound 11], the pest or weed control at 100 ppm lay within 76 to 100%.

Turning to `CC(C)C=NOc1ncc(F)c(N)n1` [Compound 7], the pest or weed control at 100 ppm lay in the range of 76 to 100%.

Take `COc1ccc(C=NOc2ncc(F)c(N(C)Cc3ccc(OC)cc3)n2)cc1` [Compound 48]: the pest or weed control at 100 ppm lay within 51 to 75%.

`CC(C)C=NOc1ncc(F)c(N(C)Cc2ccc(Cl)cc2)n1` [Compound 45]: the pest or weed control at 100 ppm fell in the range of 0 to 25%.

Take `COc1ccc(C=NOc2ncc(F)c(NCc3ccc(Cl)cc3)n2)cc1` [Compound 28]: the pest or weed control at 100 ppm fell in the range of 0 to 25%.

In the case of `Fc1cnc(ON=Cc2ccc(Cl)cc2)nc1NCc1ccccc1` [Compound 22], the pest or weed control at 100 ppm is 0 to 25%.

Regarding `CC(C)C=NOc1ncc(F)c(N(C)Cc2ccccc2)n1` [Compound 40], the pest or weed control at 100 ppm was 51 to 75%.

As for `CN(C)c1nc(ON=Cc2ccccc2)ncc1F` [Compound 51], the pest or weed control at 100 ppm is 51 to 75%.

With `CN(C)c1nc(ON=Cc2ccc(Cl)cc2)ncc1F` [Compound 52], the pest or weed control at 100 ppm is 26 to 50%.

With `COc1ccc(C=NOc2ncc(F)c(N(C)Cc3ccccc3)n2)cc1` [Compound 38], the pest or weed control at 100 ppm fell in the range of 51 to 75%.

Test system in a further data set: not given
Experiment: not given
Settings: not given
Compound `COc1ccc(C=NOc2ncc(F)c(NCc3ccccc3)n2)cc1` [Compound 23] yielded a melting point of 180 to 194 °C.

For `Nc1nc(ON=Cc2ccc(Cl)cc2)ncc1F` [Compound 8], the melting point is 200 to 220 °C (dec.).

With `COc1ccccc1C=NOc1ncc(F)c(N)n1` [Compound 9], the melting point was 240 to 250 °C (dec.).

In the case of `COc1ccc(CN(C)c2nc(ON=Cc3ccc(Cl)cc3)ncc2F)cc1` [Compound 47], the melting point lay within 79 to 83 °C.

As for `Cc1ccc(C=NOc2ncc(F)c(N)n2)cc1` [Compound 11], the melting point is 201 to 220 °C (dec.).

`CC(C)C=NOc1ncc(F)c(N)n1` [Compound 7]: the melting point was 105 to 107 °C.

Turning to `COc1ccc(C=NOc2ncc(F)c(N(C)Cc3ccc(OC)cc3)n2)cc1` [Compound 48], the melting point was in the range of 46 to 50 °C.

For the compound `CC(C)C=NOc1ncc(F)c(N(C)Cc2ccc(Cl)cc2)n1` [Compound 45], the melting point is 224 to 228 °C (dec.).

In the case of `COc1ccc(C=NOc2ncc(F)c(NCc3ccc(Cl)cc3)n2)cc1` [Compound 28], the melting point lay within 141 to 142 °C.

The compound `Fc1cnc(ON=Cc2ccc(Cl)cc2)nc1NCc1ccccc1` [Compound 22] had a melting point of 111 to 114 °C.

For `CC(C)C=NOc1ncc(F)c(N(C)Cc2ccccc2)n1` [Compound 40], the melting point fell in the range of 176 to 179 °C.

In the case of `CN(C)c1nc(ON=Cc2ccccc2)ncc1F` [Compound 51], the melting point fell in the range of 75 to 76 °C.

As for `CN(C)c1nc(ON=Cc2ccc(Cl)cc2)ncc1F` [Compound 52], the melting point is 144 to 146 °C.

With `COc1ccc(C=NOc2ncc(F)c(N(C)Cc3ccccc3)n2)cc1` [Compound 38], the melting point lay within 100 to 103 °C.

Source of the values: patent US8912207B2, “2-aldoximino-5-fluoropyrimidine derivatives” (Dow AgroSciences, LLP., priority 2009, dated 2014).
